Reference: ChEMBL document CHEMBL1201862, “PubChem BioAssay data set” (2004)
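All cell lines were grown in 96-well plates and treated with compound for 48 hours. Here, GI50 denotes the concentration required for 50% inhibition of growth.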 Activity calls are given as the source filed them. Rule as the data show it: active = GI50 up to about 1.1 µM and inactive = higher.

Tests used:
Assay in all cases: inhibition of tumour cell growth, NCI panel, 48 h
LOX IMVI = test system: LOX IMVI
UACC-62 = test system: UACC-62
NCI-H23 = test system: NCI-H23
CAKI-1 = test system: CAKI-1
Hs-578T = test system: Hs-578T
HCT-15 = test system: HCT-15
BT-549 = test system: BT-549
HOP-62 = test system: HOP-62
RXF 393 = test system: RXF 393
MDA-N = test system: MDA-N
786-0 = test system: 786-0
SNB-19 = test system: SNB-19
HCT-116 = test system: HCT-116
NCI/ADR-RES = test system: NCI/ADR-RES
A549 = test system: A549
T47D = test system: T47D
SK-MEL-28 = test system: SK-MEL-28
U-251 = test system: U-251
OVCAR-8 = test system: OVCAR-8
HOP-92 = test system: HOP-92

SMILES | GI50 (LOX IMVI) | GI50 (UACC-62) | GI50 (NCI-H23) | GI50 (CAKI-1) | GI50 (Hs-578T) | GI50 (HCT-15) | GI50 (BT-549) | GI50 (HOP-62) | GI50 (RXF 393) | GI50 (MDA-N) | GI50 (786-0) | GI50 (SNB-19) | GI50 (HCT-116) | GI50 (NCI/ADR-RES) | GI50 (A549) | GI50 (T47D) | GI50 (SK-MEL-28) | GI50 (U-251) | GI50 (OVCAR-8) | GI50 (HOP-92)
O=C1CC(c2ccccc2)NCCCCN2CC(CN1)C(C(O)c1ccccc1)C2=O (stereo not given) | > 100 µM (inactive) | > 100 µM (inactive) | > 100 µM (inactive) | > 100 µM (inactive) | > 100 µM (inactive) | > 100 µM | > 100 µM (inactive) | > 100 µM (inactive) | > 100 µM (inactive) | > 100 µM (inactive) | > 100 µM (inactive) | > 100 µM (inactive) | > 100 µM (inactive) | > 100 µM (inactive) | > 100 µM (inactive) | > 100 µM (inactive) | > 100 µM (inactive) | > 100 µM (inactive) | > 100 µM (inactive) | > 100 µM (inactive)
COc1ccc(C(O)CNC(=O)c2ccccc2)cc1 (stereo not given) | > 100 µM (inactive) | > 100 µM (inactive) | > 100 µM (inactive) | > 100 µM (inactive) | > 100 µM (inactive) | > 100 µM | > 100 µM (inactive) | > 100 µM (inactive) | > 100 µM (inactive) | > 100 µM (inactive) | > 100 µM (inactive) | > 100 µM (inactive) | > 100 µM (inactive) | > 100 µM (inactive) | > 100 µM (inactive) | > 100 µM (inactive) | > 100 µM (inactive) | > 100 µM (inactive) | > 100 µM (inactive) | > 100 µM (inactive)
COc1ccc(-c2cc(-c3ccccc3)c3c(n2)-c2ccccc2NC(=O)C3)cc1 | 65.6 µM (inactive) | 98.2 µM (inactive) | > 100 µM (inactive) | 40.9 µM (inactive) | 5.15 µM (inactive) | 17.7 µM | > 100 µM (inactive) | 36 µM (inactive) | 30.2 µM (inactive) | 30 µM (inactive) | 29 µM (inactive) | 34.7 µM (inactive) | 25.5 µM (inactive) | 36.5 µM (inactive) | 49.4 µM (inactive) | 74 µM (inactive) | > 100 µM (inactive) | 22.5 µM (inactive) | 9.66 µM (inactive) | 27 µM (inactive)
